Data on 20 compounds can be found in patent US20240072809A1, “ASGPR-BINDING COMPOUNDS FOR THE DEGRADATION OF EXTRACELLULAR PROTEINS” (Avilar Therapeutics, Inc., priority 2020, published 2024).

The Kd is a measure of binding affinity in units of concentration.

Where two headings read alike, the source gives them in different places.

This experiment has as its target ASGPR (Homo sapiens (Human), UniProt P07306). The experiment can be described thus: Affinity to ASGPR measured by surface plasmon resonance (SPR). The experiment is classed as binding. Conditions: ASGPR ligands.
Where [1] appears, read: Table 2, Biacore 8K, 25° C., steady state fit, read-out: SPR Binding External Calculation: KD.
The mark [2] stands for this setting: Table 4, class symbols, read-out: ASGPR_PR Binding KD.
[3] abbreviates: Table 4, numeric lower bounds, read-out: ASGPR_PR Binding KD.

ASGPR, sequence (P07306 whole entry): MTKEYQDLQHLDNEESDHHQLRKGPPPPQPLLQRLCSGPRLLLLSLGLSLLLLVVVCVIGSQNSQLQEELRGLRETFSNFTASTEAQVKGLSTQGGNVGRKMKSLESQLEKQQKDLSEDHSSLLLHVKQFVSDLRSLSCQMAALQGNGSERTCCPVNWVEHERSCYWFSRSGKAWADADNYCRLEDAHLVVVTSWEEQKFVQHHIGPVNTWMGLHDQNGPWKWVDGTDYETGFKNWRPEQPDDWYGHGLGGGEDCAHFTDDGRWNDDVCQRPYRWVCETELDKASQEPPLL

On to `N[C@H]1CO[C@H](CO)[C@H](O)[C@@H]1O` [Compound A92, (2R,3R,4R,5S)-5-amino-2-(hydroxymethyl)tetrahydro-2H-pyran-3,4-diol], for which the Kd under setting [1] is more than 1000 µM. The same measure, in the same setting: for `CC(=O)NC[C@@H]1CO[C@H](CO)[C@H](O)[C@@H]1O` [Compound A183, N-(((3R,4R,5R,6R)-4,5-dihydroxy-6-(hydroxymethyl)tetrahydro-2H-pyran-3-yl)methyl)acetamide] the value was 100 to 500 µM. Take `O=C(N[C@@H]1CO[C@H](CO)[C@H](O)[C@@H]1O)c1ccccc1` [Compound A136, N-((3R,4R,5R,6R)-4,5-dihydroxy-6-(hydroxymethyl)tetrahydro-2H-pyran-3-yl)benzamide]: the Kd under setting [2] was in the range of 100 to 500 µM. Regarding `OC[C@H]1OC[C@H](Nc2ncc(F)cc2F)[C@@H](O)[C@H]1O` [Compound A103], the Kd under setting [1] was 100 to 500 µM.

With `COc1ccnc(N[C@H]2CO[C@H](CO)[C@H](O)[C@@H]2O)n1` [Compound A323], under setting [2], the Kd was less than 100 µM.

For the compound `COc1nc(Cl)cc(N[C@H]2CO[C@H](CO)[C@H](O)[C@@H]2O)n1` [Compound A327], the Kd under setting [2] is less than 100 µM. For `OC[C@H]1OC[C@@H](Nc2ccncn2)[C@@H](O)[C@H]1O` [Compound A149], the Kd under setting [3] was more than 20 µM.

Consider `COc1cc(N[C@H]2[C@H]3OC[C@](CO)(O3)[C@H](O)[C@@H]2O)nc(C#N)n1` [Compound A426], for which the Kd under setting [2] was less than 100 µM. Same read-out and setting: the figure for `COc1nc(C#N)cc(N[C@H]2CO[C@H](CO)[C@H](O)[C@@H]2O)n1` [Compound A326] is less than 100 µM. As to `COC(=O)[C@@H]1CO[C@H](CO)[C@H](O)[C@@H]1O` [Compound A401, methyl (3R,4R,5R,6R)-4,5-dihydroxy-6-(hydroxymethyl)tetrahydro-2H-pyran-3-carboxylate], under setting [3], the Kd was more than 200 µM. In the case of `CN(C)c1nsc(N[C@H]2CO[C@H](CO)[C@H](O)[C@@H]2O)n1` [Compound A339, (2R,3R,4R,5S)-5-((3-(dimethylamino)-1,2,4-thiadiazol-5-yl)amino)-2-(hydroxymethyl)tetrahydro-2H-pyran-3,4-diol], the equilibrium dissociation constant (Kd) under setting [2] is less than 100 µM. Regarding `CO[C@H]1O[C@H](CO)[C@H](O)[C@H](O)[C@H]1Nc1cccc(F)n1` [Compound A380], the Kd under setting [2] was less than 100 µM. Regarding `CSc1ccnc(N[C@H]2CO[C@H](CO)[C@H](O)[C@@H]2O)n1` [Compound A336], the Kd under setting [2] is less than 100 µM. On the same count and under the same terms, for `OC[C@H]1OC[C@H](Nc2ccnc(C(F)(F)F)n2)[C@@H](O)[C@H]1O` [Compound A301] the value was less than 100 µM; for `OC[C@H]1OC[C@H](Nc2nccc(C(F)F)n2)[C@@H](O)[C@H]1O` [Compound A335], less than 100 µM. Turning to `C=CC(=O)N[C@H]1[C@H](OC)O[C@H](CO)[C@H](O)[C@@H]1O` [Compound A118, N-((2R,3R,4R,5R,6R)-4,5-dihydroxy-6-(hydroxymethyl)-2-methoxytetrahydro-2H-pyran-3-yl)acrylamide], the Kd under setting [1] is less than 100 µM.

As to `CS(=O)(=O)c1nc(Cl)cc(N[C@H]2CO[C@H](CO)[C@H](O)[C@@H]2O)n1` [Compound A370, (2R,3R,4R,5S)-5-((6-chloro-2-(methylsulfonyl)pyrimidin-4-yl)amino)-2-(hydroxymethyl)tetrahydro-2H-pyran-3,4-diol], the Kd under setting [3] is more than 10 µM. Still for that read-out and setting: the figure for `CS(=O)(=O)NC(=O)N[C@H]1CO[C@H](CO)[C@H](O)[C@@H]1O` [Compound A157, N-(((3S,4R,5R,6R)-4,5-dihydroxy-6-(hydroxymethyl)tetrahydro-2H-pyran-3-yl)carbamoyl)methanesulfonamide] is more than 20 µM; for `CN1CCN(C[C@@H]2CO[C@H](CO)[C@H](O)[C@@H]2O)CC1` [Compound A390, (2R,3R,4R,5R)-2-(hydroxymethyl)-5-((4-methylpiperazin-1-yl)methyl) tetrahydro-2H-pyran-3,4-diol] it is more than 200 µM. The same measure, in the same setting: the figure for `OC[C@H]1OC[C@@H](c2cncnc2)[C@@H](O)[C@H]1O` [Compound A395, (2R,3R,4R,5R)-2-(hydroxymethyl)-5-(pyrimidin-5-yl)tetrahydro-2H-pyran-3,4-diol] is more than 200 µM.
